In US8067460B2 (The Regents of the University of Califonia, priority 2004, dated 2011):
Read-outs that look alike come from different tables or passages of the source. No end group written: not given here.

Key:
[1] = molecular target: Kv1.5 (Homo sapiens, UniProt P22460); test: Inhibitory effect on K+ channels (Appendix A): Kv1.5; format: cell-based; conditions: for nH (Kv1.5): Hill coefficient printed beside the Kv1.5 EC50
[2] = molecular target: Kv1.3 (Mus musculus, UniProt P16390); test: Inhibitory effect on K+ channels (Appendix A): Kv1.3; format: cell-based; conditions: for nH (Kv1.3): Hill coefficient printed beside the Kv1.3 EC50; for selectivity for Kv1.3 channels over Kv1.5 channels: Kv1.3 versus Kv1.5, from Appendix A
[3] = test system: class-switched (IgD−CD27+) memory B cells; conditions: cited from earlier work
[4] = molecular target: Kv1.1 (Homo sapiens, UniProt Q09470); test: Inhibitory effect on K+ channels (Appendix A): Kv1.1; format: cell-based
[5] = test system: delayed-type hypersensitivity (DTH) response; conditions: mini-pigs, cited from earlier work
[6] = molecular target: Kv1.7 (Homo sapiens, UniProt Q96RP8); test: Inhibitory effect on K+ channels (Appendix A): Kv1.7; format: cell-based
[7] = molecular target: BK (Homo sapiens, UniProt Q12791); test: Inhibitory effect on K+ channels (Appendix A): BK; format: cell-based
[8] = molecular target: Kv1.4 (Homo sapiens, UniProt P22459); test: Inhibitory effect on K+ channels (Appendix A): Kv1.4; format: cell-based
[9] = molecular target: IKCa1 (Homo sapiens, UniProt O15554); test: Inhibitory effect on K+ channels (Appendix A): IKCa1; format: cell-based

Chain of Kv1.1 (Q09470 whole entry): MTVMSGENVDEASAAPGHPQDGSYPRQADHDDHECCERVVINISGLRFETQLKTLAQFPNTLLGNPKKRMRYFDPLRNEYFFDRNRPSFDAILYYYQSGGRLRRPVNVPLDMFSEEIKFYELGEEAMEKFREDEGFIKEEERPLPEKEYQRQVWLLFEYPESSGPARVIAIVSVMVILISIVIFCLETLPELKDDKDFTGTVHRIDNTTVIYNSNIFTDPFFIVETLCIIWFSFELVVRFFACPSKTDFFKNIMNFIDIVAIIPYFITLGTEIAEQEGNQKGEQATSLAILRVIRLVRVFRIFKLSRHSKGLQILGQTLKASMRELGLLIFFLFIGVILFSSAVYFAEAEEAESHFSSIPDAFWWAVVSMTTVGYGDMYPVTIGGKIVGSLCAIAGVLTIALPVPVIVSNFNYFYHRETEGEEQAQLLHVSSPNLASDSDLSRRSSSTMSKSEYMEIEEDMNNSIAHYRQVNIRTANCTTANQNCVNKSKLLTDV
Chain of Kv1.5 (P22460 whole entry): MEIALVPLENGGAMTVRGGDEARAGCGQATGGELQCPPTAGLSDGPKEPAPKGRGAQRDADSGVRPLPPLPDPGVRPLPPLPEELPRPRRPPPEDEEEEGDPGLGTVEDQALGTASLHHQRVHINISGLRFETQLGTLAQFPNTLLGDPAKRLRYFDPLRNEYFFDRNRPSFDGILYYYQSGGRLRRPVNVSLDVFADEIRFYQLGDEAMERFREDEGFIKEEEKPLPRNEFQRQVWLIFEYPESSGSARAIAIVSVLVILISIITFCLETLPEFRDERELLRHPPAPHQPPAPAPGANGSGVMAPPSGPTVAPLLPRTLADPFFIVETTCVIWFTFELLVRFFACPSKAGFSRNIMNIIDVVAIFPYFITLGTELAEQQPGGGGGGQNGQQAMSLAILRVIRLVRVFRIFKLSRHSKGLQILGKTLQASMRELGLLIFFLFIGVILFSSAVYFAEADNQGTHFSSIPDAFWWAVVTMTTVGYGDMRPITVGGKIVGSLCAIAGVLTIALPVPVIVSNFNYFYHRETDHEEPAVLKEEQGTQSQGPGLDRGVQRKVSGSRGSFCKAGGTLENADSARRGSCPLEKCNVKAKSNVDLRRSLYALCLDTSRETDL
Chain of Kv1.3 (P16390 whole entry): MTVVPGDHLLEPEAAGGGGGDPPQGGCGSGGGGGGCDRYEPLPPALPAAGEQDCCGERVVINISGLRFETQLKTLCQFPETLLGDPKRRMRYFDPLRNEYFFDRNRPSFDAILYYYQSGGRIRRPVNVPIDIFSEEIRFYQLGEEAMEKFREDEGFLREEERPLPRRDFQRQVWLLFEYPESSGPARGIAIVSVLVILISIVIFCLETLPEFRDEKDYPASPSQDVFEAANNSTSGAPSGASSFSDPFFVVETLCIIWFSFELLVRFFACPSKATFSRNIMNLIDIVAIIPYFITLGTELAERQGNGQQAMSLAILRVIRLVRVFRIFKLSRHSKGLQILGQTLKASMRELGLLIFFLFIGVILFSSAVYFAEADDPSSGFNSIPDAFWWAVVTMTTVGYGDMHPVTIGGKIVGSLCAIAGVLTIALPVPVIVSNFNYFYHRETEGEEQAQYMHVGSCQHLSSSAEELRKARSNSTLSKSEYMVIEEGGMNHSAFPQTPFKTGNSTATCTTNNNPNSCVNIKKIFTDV
Chain of Kv1.4 (P22459 whole entry): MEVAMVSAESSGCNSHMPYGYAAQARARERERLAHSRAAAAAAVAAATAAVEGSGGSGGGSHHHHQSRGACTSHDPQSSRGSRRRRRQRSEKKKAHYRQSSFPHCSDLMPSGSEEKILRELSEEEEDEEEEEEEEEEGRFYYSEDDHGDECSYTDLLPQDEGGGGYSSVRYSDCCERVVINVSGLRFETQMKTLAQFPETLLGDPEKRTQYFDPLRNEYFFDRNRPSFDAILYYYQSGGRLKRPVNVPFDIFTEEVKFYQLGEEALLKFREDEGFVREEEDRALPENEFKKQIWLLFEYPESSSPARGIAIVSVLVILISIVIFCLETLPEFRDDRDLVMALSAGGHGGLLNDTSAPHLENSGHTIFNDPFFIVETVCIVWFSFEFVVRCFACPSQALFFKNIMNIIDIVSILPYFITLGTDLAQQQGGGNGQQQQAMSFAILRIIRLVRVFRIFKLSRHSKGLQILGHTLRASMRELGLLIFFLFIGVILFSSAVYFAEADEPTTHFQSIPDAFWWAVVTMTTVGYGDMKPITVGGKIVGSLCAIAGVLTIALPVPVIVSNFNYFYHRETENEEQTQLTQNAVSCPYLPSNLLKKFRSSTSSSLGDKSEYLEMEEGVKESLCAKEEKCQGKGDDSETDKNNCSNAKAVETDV
Chain of Kv1.7 (Q96RP8 whole entry): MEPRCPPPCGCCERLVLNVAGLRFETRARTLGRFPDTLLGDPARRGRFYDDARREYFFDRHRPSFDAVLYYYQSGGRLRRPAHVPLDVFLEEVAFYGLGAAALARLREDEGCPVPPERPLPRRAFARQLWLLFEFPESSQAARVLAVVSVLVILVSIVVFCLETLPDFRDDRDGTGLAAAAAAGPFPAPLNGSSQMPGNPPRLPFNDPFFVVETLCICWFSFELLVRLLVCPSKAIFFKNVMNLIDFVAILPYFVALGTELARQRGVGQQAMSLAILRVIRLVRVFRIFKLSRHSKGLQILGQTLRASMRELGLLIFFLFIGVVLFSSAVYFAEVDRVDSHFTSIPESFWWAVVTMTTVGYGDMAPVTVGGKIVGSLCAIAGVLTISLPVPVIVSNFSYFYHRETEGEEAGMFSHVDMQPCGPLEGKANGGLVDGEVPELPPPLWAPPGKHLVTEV
Chain of BK (Q12791 whole entry): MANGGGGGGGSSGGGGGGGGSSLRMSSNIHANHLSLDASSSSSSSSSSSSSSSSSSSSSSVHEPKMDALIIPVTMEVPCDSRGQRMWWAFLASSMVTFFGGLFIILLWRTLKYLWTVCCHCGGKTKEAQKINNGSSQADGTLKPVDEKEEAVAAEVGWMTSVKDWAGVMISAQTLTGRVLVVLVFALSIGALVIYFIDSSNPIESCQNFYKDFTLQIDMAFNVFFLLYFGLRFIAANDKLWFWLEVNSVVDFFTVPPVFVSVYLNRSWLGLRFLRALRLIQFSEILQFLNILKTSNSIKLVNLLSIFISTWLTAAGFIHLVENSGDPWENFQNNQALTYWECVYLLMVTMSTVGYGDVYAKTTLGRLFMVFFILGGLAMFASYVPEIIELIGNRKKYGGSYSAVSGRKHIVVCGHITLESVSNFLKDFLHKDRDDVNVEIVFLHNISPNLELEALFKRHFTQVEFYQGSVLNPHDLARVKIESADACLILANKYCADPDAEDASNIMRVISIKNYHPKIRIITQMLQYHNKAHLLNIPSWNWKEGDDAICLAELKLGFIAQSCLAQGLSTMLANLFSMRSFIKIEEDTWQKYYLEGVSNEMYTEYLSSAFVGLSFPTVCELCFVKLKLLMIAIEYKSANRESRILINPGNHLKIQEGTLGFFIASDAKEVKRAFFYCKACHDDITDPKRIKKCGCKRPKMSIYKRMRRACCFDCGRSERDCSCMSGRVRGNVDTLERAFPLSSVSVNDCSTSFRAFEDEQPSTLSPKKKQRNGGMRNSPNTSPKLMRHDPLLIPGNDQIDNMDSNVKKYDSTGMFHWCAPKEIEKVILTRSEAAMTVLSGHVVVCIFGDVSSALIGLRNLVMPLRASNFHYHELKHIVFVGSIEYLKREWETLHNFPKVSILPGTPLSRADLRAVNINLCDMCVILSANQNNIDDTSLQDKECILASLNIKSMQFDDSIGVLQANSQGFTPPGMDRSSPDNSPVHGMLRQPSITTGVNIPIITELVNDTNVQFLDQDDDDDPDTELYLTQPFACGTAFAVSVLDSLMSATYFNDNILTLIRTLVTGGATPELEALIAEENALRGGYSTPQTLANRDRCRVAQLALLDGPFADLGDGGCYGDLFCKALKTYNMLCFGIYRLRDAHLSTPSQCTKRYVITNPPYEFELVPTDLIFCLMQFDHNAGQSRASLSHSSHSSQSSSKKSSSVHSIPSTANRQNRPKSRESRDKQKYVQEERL

Row | Molecule | EC50 [1] | nH (Kv1.3) [2] | other results
1 | COc1cccc(OCCCCOc2c3ccoc3cc3oc(=O)ccc23)c1 [AS68, 4-(4-[3-Methoxyphenoxy]butoxy)-7H-furo[3,2-g][1]benzopyran-7-on] | 0.045 ± 0.005 µM | – | –
2 | O=c1ccc2c(OCCCOc3ccc(Cl)cc3)c3ccoc3cc2o1 [AS132, 4-[3-(4-Chlorphenoxy)propoxy]-7H-furo[3,2-g][1]benzopyran-7-on] | – | – | nH (Kv1.3) ([2]; listed as drawing 81): 2.0; nH (Kv1.5) [1]: 2.0; EC50 ([1]; cells unit inferred): 0.025 ± 0.002 µM
3 | COc1cc(OC)cc(OCCCCOc2c3ccoc3cc3oc(=O)ccc23)c1 [AS69, 4-(4-[3,5-Dimethoxyphenoxy]butoxy)-7H-furo[3,2-g][1]benzopyran-7-on] | 0.15 ± 0.02 µM | – | –
4 | COc1ccc2sc(SCCCCOc3c4ccoc4cc4oc(=O)ccc34)nc2c1 | 0.1 µM | – | –
5 | COc1cc([N+](=O)[O-])ccc1OCCCCOc1c2ccoc2cc2oc(=O)ccc12 | 0.476 ± 0.02 µM | – | –
6 | COc1ccc(OCCCCOc2c3ccoc3cc3oc(=O)ccc23)cc1 [AS67, 4-(4-[4-Methoxyphenoxy]butoxy)-7H-furo[3,2-g][1]benzopyran-7-on] | 0.01 ± 0.001 µM | 2.1 | –
7 | Cc1ccc(OCCCCOc2c3ccoc3cc3oc(=O)ccc23)c([N+](=O)[O-])c1 | 0.248 ± 0.02 µM | – | –
8 | O=c1ccc2c(OCCCCOCc3ccc(F)cc3)c3ccoc3cc2o1 | – | 2 | –
9 | O=c1ccc2c(OCCCCc3ccccc3)c3ccoc3cc2o1 [Psora-4] | – | – | inhibition of proliferation [3]: potently inhibited
10 | CCc1ccc(OCCCCCOc2c3ccoc3cc3oc(=O)ccc23)cc1 | – | 2.1 | –
11 | 4-[3-(3-Methoxyphenoxy)propoxy]-7H-furo[3,2-g][1]benzopyran-7-on [AS64] | – | 2.05 | EC50 [2]: 42 ± 3 nM
12 | O=c1ccc2c(OCCCOCc3ccccc3)c3ccoc3cc2o1 | 0.17 ± 0.02 µM | – | –
13 | N#CCCCOc1c2occc2cc2ccc(=O)oc12 | – | – | EC50 ([1]; cells printed in μM): 10 µM
14 | O=c1ccc2c(OCCCCOc3cccc4ccccc34)c3ccoc3cc2o1 [AS111] | 0.05 ± 0.005 µM | 2.0 | nH (Kv1.5) [1]: 2.0
15 | N#CCCCOc1c2ccoc2cc2oc(=O)ccc12 | – | – | EC50 ([1]; cells printed in μM): 12 µM
16 | O=c1ccc2c(OCCCCCOc3ccccc3)c3ccoc3cc2o1 | – | 2.1 | –
17 | O=c1ccc2c(OCCCCOc3ccc4ccccc4c3)c3ccoc3cc2o1 [AS118] | 0.08 ± 0.01 µM | 2.1 | nH (Kv1.5) [1]: 2.0
18 | O=c1ccc2c(OCCOCc3ccccc3)c3ccoc3cc2o1 | 0.11 ± 0.02 µM | – | EC50 [4]: 175 ± 20 nM
19 | 4-[3-(4-Ethylphenoxy)propoxy]-7H-furo[3,2-g][1]benzopyran-7-on [AS123] | – | 1.7 | EC50 [2]: 30 ± 2 nM; nH (Kv1.5) [1]: 2.0; EC50 ([1]; cells unit inferred): 0.068 ± 0.003 µM
20 | O=c1ccc2c(OCCCCOc3ccc(F)cc3)c3ccoc3cc2o1 | 0.012 ± 0.001 µM | 2.3 | –

Row | Molecule | EC50 [1] | nH (Kv1.3) [2] | other results
21 | O=c1ccc2c(OCCCCOCc3ccccc3)c3ccoc3cc2o1 | 0.75 ± 0.04 µM | – | –
22 | O=c1ccc2ccc(OCCCCOc3c4ccoc4cc4oc(=O)ccc34)cc2o1 | – | – | EC50 ([1]; cells printed in μM): 5 µM
23 | O=c1ccc2c(OCCCCOc3ccc([N+](=O)[O-])cc3)c3ccoc3cc2o1 [AS78, 4-(4-[4-Nitrophenoxy]butoxy)-7H-furo[3,2-g][1]benzopyran-7-on] | 0.105 ± 0.008 µM | 1.9 | selectivity for Kv1.3 channels over Kv1.5 channels [2]: selective for Kv1.3 channels over Kv1.5 channels
24 | Cc1ccc(OCCCCOc2c3ccoc3cc3oc(=O)ccc23)cc1 [AS96, 4-(4-[4-Methylphenoxy]butoxy)-7H-furo[3,2-g][1]benzopyran-7-on] | 0.02 µM | 2.1 | –
25 | O=c1ccc2c(OCCCCn3cccn3)c3ccoc3cc2o1 | – | – | EC50 ([1]; cells printed in μM): 5 µM
26 | O=c1ccc2c(OCCCCNc3ccncc3)c3ccoc3cc2o1 | – | – | EC50 ([1]; cells printed in μM): 5 µM
27 | 4-[3-(4-Methylphenoxy)propoxy]-7H-furo[3,2-g][1]benzopyran-7-on [AS127] | – | 1.9 | EC50 [2]: 25 ± 2 nM; nH (Kv1.5) [1]: 1.8; EC50 ([1]; cells unit inferred): 0.25 ± 0.01 µM
28 | MgTX: Kv1.3 blocker MgTX (TIINVKCTSPKQCLPPCKAQFGQSAGAKCMNGKCKCYPH; ends and bridges not checked; cysteine pairing not given here; UniProt P40755 1-39, looked up) | – | – | suppression of the primary DTH response [5]: effectively suppress; suppression of the secondary DTH response [5]: much less effective
29 | O=c1ccc2c(OCCCCOc3ccccc3)c3ccoc3cc2o1 [PAP 1, 4-(4-Phenoxybutoxy)-7H-furo[3,2-g][1]benzopyran-7-on] | 0.045 ± 0.003 µM | 1.8 | EC50 [6]: 98 ± 5 nM; EC50 [7]: 1500 ± 700 nM; EC50 [8]: 75 ± 5 nM; EC50 [4]: 65 ± 8 nM; EC50 [9]: 10000 ± 1000 nM; nH (Kv1.5) [1]: 2.3
30 | O=c1ccc2c(OCCCCOc3ccc(Oc4ccccc4)cc3)c3ccoc3cc2o1 [AS85, 4-(4-[4-Phenoxyphenoxy]butoxy)-7H-furo[3,2-g][1]benzopyran-7-on] | 0.75 µM | – | selectivity for Kv1.3 channels over Kv1.5 channels [2]: selective for Kv1.3 channels over Kv1.5 channels
31 | N#CCCCCOc1c2occc2cc2ccc(=O)oc12 | – | – | EC50 ([1]; cells printed in μM): 10 µM
32 | C=C1C[C@@]2(O)[C@@H]3CC[C@@]4(C)[C@@H]5C=CC(=O)OC[C@]5(C(C)OC(C)=O)[C@@H](OC(C)=O)[C@@H](OC(C)=O)[C@@H]4[C@@]3(C)[C@H](OC(C)=O)[C@H](OC(C)=O)[C@@]2(C)C2(C(=O)OC)O[C@H]12 (some centres unmarked) [correolide] | – | – | suppression of the primary DTH response [5]: effectively suppress; suppression of the secondary DTH response [5]: much less effective
33 | COc1cc(OC)cc(OCCCOc2c3ccoc3cc3oc(=O)ccc23)c1 [AS104, 4-[3-(3,5-Dimethoxyphenoxy)propoxy]-7H-furo[3,2-g][1]benzopyran-7-on] | – | 2.2 | –
34 | 4-[3-(1-Naphthyloxy)propoxy]-7H-furo[3,2-g][1]benzopyran-7-on [AS135] | – | 2.1 | EC50 [2]: 18 ± 1 nM
35 | Cc1nnc(SCCCCOc2c3ccoc3cc3oc(=O)ccc23)s1 | – | – | EC50 ([1]; cells printed in μM): 1 µM
36 | O=c1ccc2c(OCCCCOc3cccc(C(F)(F)F)c3)c3ccoc3cc2o1 | 0.25 µM | 2.0 | –
37 | N#CCCCCOc1c2ccoc2cc2oc(=O)ccc12 | – | – | EC50 ([1]; cells printed in μM): 5 µM
38 | O=c1ccc2c(OCCCCOc3ccc(Cl)cc3)c3ccoc3cc2o1 [AS84, 4-(4-[4-Chlorphenoxy]butoxy)-7H-furo[3,2-g][1]benzopyran-7-on] | 0.01 µM | 2.0 | –
39 | O=c1ccc2c(OCCCCSc3ncccn3)c3ccoc3cc2o1 | 0.159 ± 0.007 µM | – | –
40 | O=c1ccc2c(OCCCOc3ccccc3)c3ccoc3cc2o1 [PAP 3, 4-(3-Phenoxypropoxy)-7H-furo[3,2-g][1]benzopyran-7-on] | 0.1 ± 0.008 µM | – | EC50 [8]: ~500 nM; EC50 [4]: 80 ± 10 nM
